Broadly, the IC50 is the midpoint of a concentration-inhibition curve.

Our source for the IC50 values is patent publication EP0640594A1, “Hydantoin derivative as metalloprotease inhibitor” (FUJIREBIO INC., priority 1993, dated 1995).

The target in one assay is T1, NEP (Rattus norvegicus, UniProt P07861).
T1 construct: The fractions with the NEP activity were collected, and was used as the enzyme source for the test; from tissue; host or cells: kidneys of male SD rats
T1 sequence (P07861 1-750): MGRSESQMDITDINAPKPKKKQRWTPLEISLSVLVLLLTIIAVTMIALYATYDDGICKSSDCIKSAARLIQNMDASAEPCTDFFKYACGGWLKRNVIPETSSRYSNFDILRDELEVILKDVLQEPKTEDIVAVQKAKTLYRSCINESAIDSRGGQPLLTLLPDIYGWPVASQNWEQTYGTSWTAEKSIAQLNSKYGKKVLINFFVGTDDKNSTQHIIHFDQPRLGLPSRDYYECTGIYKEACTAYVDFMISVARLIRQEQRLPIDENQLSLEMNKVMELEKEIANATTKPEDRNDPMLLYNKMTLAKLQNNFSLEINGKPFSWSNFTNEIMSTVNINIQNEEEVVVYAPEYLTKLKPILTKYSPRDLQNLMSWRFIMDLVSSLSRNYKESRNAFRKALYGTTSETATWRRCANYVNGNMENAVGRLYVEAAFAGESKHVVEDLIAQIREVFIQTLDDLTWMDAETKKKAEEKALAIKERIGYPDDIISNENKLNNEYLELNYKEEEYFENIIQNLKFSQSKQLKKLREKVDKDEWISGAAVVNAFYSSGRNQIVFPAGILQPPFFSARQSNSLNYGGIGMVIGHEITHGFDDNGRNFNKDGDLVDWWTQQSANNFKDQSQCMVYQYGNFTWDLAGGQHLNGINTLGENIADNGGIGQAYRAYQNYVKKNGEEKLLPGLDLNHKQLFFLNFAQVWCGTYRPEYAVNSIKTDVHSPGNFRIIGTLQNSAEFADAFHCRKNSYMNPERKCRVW
Description: in vitro inhibitory activity on NEP. Format: biochemical. The settings on record: NEP from kidneys of male SD rats; 0.4 mM glutaryl-Ala-Ala-Phe-4-methoxy-β-naphthylamide, pH 7.4, 37°C, 1 hour. On the procedure:
NEP was prepared as follows in accordance with the process as described in Peptide, 9, 173 (1988). Kidneys of male SD rats were homogenized with 10 times by volume of a tris/HCl buffer solution (pH 7.0) containing mannitol and magnesium chloride. The homogenate was centrifuged (700 × g) to give a supernatant liquid. To the supernatant liquid was added n-octyl-β-D-glucoside in an amount to give a final concentration of 1 %, followed by stirring at 4°C for 1 hour, thereby solubilizing the enzyme. The solution was dialyzed against 5 mM HEPES/0.1% Triton (pH 7.4). The inner liquid was applied to a DE-52 column (2.5 cm i.d. × 15 cm) equilibrated with 5 mM HEPES/0.1% Triton (pH 7.4). The column was eluted with 500 ml of a NaCl solution having a linear concentration gradient of 0-300 mM. The fractions with the NEP activity were collected, and was used as the enzyme source for the test.
The inhibitory activity on NEP was measured according to the method described in Biochemistry, 20, 4942 (1981). That is, 250 µl of a 50 mM tris/HCl buffer solution (pH 7.4) containing 0.4 mM of glutaryl-Ala-Ala-Phe-4-methoxy-β-naphthylamide, 0.25 unit/ml of leucine aminopeptidase, a predetermined amount of the sample compound and NEP was prepared and the reaction was carried out at 37°C for 1 hour. The amount of 4-methoxy-β-naphthylamide produced by the NEP activity was measured to determine the inhibitory activity.

The target in another assay is ACE (Homo sapiens, UniProt P12821). Description: in vitro inhibitory activity on ACE. The following applies: 0.016 unit/ml ACE; 2.0 mM hippuryl-L-histidyl-L-leucine, pH 8.4, 37°C, 30 minutes. Format: biochemical. On the procedure:
The inhibitory activity on ACE was measured according to the method described in Biochem. Pharmacolo., 20, 1637 (1971). That is, a 100 mM boric acid/sodium carbonate buffer solution (pH 8.4) containing 2.0 mM of hippuryl-L-histidyl-L-leucine, 0.016 unit/ml of ACE, 0.8 M of NaCl, and a predetermined amount of the sample compound was prepared and the reaction was carried out at 37°C for 30 minutes. The amount of hippuric acid produced by the ACE activity was measured to determine the inhibitory activity.

ACE, sequence (P12821 30-1306, species assumed): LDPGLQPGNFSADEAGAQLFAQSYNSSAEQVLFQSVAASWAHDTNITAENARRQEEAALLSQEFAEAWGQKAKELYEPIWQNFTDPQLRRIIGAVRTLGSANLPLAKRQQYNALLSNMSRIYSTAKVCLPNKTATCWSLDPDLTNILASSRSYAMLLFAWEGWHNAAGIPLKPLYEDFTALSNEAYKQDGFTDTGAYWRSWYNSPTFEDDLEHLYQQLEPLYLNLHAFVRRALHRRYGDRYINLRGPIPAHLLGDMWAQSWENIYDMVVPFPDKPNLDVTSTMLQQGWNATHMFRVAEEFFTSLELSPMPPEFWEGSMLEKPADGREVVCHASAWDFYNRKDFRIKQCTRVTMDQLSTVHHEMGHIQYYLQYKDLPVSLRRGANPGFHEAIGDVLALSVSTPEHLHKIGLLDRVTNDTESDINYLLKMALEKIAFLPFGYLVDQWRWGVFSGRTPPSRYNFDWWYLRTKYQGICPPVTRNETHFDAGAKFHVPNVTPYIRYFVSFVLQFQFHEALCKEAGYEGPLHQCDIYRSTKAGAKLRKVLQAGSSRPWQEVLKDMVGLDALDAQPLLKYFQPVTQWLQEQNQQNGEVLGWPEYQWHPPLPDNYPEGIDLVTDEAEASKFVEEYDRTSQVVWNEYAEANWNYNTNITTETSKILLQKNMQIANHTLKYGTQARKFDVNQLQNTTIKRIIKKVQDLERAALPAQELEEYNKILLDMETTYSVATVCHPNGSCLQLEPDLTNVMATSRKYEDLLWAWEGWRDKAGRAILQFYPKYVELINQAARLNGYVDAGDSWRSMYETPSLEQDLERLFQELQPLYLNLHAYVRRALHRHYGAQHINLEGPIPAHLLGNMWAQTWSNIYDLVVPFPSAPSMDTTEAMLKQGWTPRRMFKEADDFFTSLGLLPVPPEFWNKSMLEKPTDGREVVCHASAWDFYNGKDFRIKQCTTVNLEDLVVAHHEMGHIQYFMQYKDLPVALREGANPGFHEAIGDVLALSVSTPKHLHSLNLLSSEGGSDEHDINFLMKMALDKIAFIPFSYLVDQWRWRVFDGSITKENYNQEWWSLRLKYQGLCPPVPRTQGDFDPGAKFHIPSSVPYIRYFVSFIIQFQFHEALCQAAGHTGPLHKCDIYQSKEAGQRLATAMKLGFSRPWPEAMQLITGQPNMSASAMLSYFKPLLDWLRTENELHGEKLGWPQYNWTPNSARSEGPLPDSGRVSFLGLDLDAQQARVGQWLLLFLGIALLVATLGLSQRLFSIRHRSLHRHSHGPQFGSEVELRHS

`O=C(O)CN1CC(=O)N(C(CS)Cc2ccccc2)C1=O` (stereo not shown) [Example 20, 1-(carboxymethyl)-3-(1-mercapto-3-phenyl-2-propyl)hydantoin]: the IC50 turned out to be 230 nM against NEP and 5400 nM against ACE.
Consider `O=C1CN(C2(C(=O)O)CCCCC2)C(=O)N1C(CS)Cc1ccccc1` (stereo not shown) [Example 24, 1-(1-carboxycyclohexyl)-3-(1-mercapto-3-phenyl-2-propyl) hydantoin], for which the IC50 on ACE came out at 5200 nM.
Same read-out and setting: the value for `O=C(O)CN1C(=O)N(C(CS)Cc2ccccc2)C(=O)C12CCCCC2` (stereo not shown) [Example 34] was 200 nM.
The same measure, in the same setting: the value for `CC(C)C1C(=O)N(C(CS)Cc2ccccc2)C(=O)N1CC(=O)O` (stereo not shown) [Example 36, 1-(carboxymethyl)-5-(1-methylethyl)-3-(1-mercapto-3-phenyl-2-propyl)hydantoin] was 3400 nM; that for `CC1(C)C(=O)N(C(CS)Cc2ccccc2)C(=O)N1CC(=O)O` (stereo not shown) [Example 40, 1-(carboxymethyl)-5,5-dimethyl-3-(1-mercapto-3-phenyl-2-propyl)hydantoin] was 2400 nM.
Consider `O=C(O)CN1C(=O)N(C(CS)Cc2ccccc2)C(=O)C12CCCC2` (stereo not shown) [Example 41, 1-(carboxymethyl)-3-(1-mercapto-3-phenyl-2-propyl)hydantoin-5-spirocyclopentane], for which the IC50 against NEP and against ACE was 460 nM in each case.
For the molecule `CCC(C)C1C(=O)N(C(CS)Cc2ccccc2)C(=O)N1CC(=O)O` (stereo not shown) [Example 42, 5-(2-butyl)-1-(carboxymethyl)-3-(1-mercapto-3-phenyl-2-propyl)hydantoin], the IC50 at ACE was determined as 1600 nM.
Still for that read-out and setting: the value for `CC(O)C1C(=O)N(C(CS)Cc2ccccc2)C(=O)N1CC(=O)O` (stereo not shown) [Example 43, 1-(carboxymethyl)-5-(1-hydroxyethyl)-3-(1-mercapto-3-phenyl-2-propyl)hydantoin] was 1100 nM.
Take `O=C(O)CN1C(=O)N(C(CS)Cc2ccccc2)C(=O)C12Cc1ccccc1C2` (stereo not shown) [Example 44, 1-(carboxymethyl)-3-(1-mercapto-3-phenyl-2-propyl)hydantoin-5-spiro-2'-indane]: the 50% inhibitory concentration (IC50) against NEP came out at 99 nM; on ACE it was 680 nM.
In the case of `O=C(O)CN1C(=O)N(C(CS)Cc2ccccc2)C(=O)C12CCC2` (stereo not shown) [Example 50, 1-(carboxymethyl)-3-(1-mercapto-3-phenyl-2-propyl)-hydantoin-5-spirocyclobutane], the midpoint of inhibition against ACE, the IC50, lay at 300 nM.
`O=C(O)CN1C(=O)N(C(CS)Cc2ccccc2)C(=O)C1C1CCCC1` (stereo not shown) [Example 51, 1-(carboxymethyl)-5-cyclopentyl-3-(1-mercapto-3-phenyl-2-propyl)hydantoin]: the IC50 against NEP came out at 560 nM; against ACE, 370 nM.
For `O=C(O)CN1C(=O)N(C(CS)Cc2ccccc2)C(=O)C1c1ccccc1` (stereo not shown) [Example 52, 1-(carboxymethyl)-5-phenyl-3-(1-mercapto-3-phenyl-2-propyl)hydantoin], in that order: 61 nM and 450 nM.
The molecule `CC(CS)N1C(=O)N(CC(=O)O)C2(CCCC2)C1=O` (stereo not shown) [Example 63, 1-(carboxymethyl)-3-(1-mercapto-2-propyl)hydantoin-5-spirocyclopentane] had a half-maximal inhibitory concentration (IC50) against ACE of 180 nM.
On the same count and under the same terms, the value for `CC(C)C(CS)N1C(=O)N(CC(=O)O)C2(CCCC2)C1=O` (stereo not shown) [Example 65, 1-(carboxymethyl)-3-(1-mercapto-3-methyl-2-butyl)hydantoin-5-spirocyclopentane] was 1000 nM.
For the molecule `CC(C)CC(CS)N1C(=O)N(CC(=O)O)C2(CCCC2)C1=O` (stereo not shown) [Example 67, 1-(carboxymethyl)-3-(1-mercapto-4-methyl-2-pentyl)hydantoin-5-spirocyclopentane], the IC50 at NEP was 160 nM; on ACE, 510 nM.
For `O=C(O)Cn1c(=O)n(C(CS)Cc2ccccc2)c(=O)n1C1CCCC1` (stereo not shown) [Example 72, 1-(carboxymethyl)-2-cyclopentyl-4-(1-mercapto-3-phenyl-2-propyl)urazole], at NEP, the IC50 worked out at 400 nM.
